Measured values published in paper PMC2965201 (Bioorganic & medicinal chemistry, 2010).

Experiments:
[1] = tested on: Rce1p; details: ref [8], [10]; cited from earlier work
[2] = tested on: Rce1p; test: Large-scale Rce1p proteolysis with ESI-MS and MS-MS identification of product; assay type: biochemical, S. cerevisiae; details: 150 μM substrate, membranes 0.3 mg/mL, 100 mM Hepes, 5 mM MgCl2, pH 7.5, 30 °C, 3–3.5 h; ESI-MS [M+2H]2+
[3] = molecular target: T1, yeast Rce1p (Saccharomyces cerevisiae, UniProt Q03530); test: In vitro fluorescence-based Ca1a2X proteolysis assay; assay type: biochemical, S. cerevisiae
T1 sequence (Q03530 1-315): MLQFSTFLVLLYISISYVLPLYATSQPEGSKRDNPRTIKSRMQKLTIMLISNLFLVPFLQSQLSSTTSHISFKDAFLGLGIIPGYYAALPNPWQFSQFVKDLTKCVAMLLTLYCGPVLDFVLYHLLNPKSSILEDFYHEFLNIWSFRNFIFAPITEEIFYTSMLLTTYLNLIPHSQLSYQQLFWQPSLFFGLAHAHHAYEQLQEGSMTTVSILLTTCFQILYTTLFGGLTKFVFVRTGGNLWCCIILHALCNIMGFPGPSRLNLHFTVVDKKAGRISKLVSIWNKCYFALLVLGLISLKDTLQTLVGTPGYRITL

[4] = tested on: Rce1p; details: previously reported, ref [9], [10], [13], cited from earlier work; for Vmax: no quencher

c1cnc2c(c1)ccc1cccnc12 [1,10-phenanthroline]
inhibition of Rce1p [1]: inhibited

[Zn] [zinc]
inhibition of Rce1p [1]: inhibited

Abz-KSKTKC(C5BP)K(Dnp)IM [Peptide 4]
identity of product of Rce1p-catalyzed proteolysis [2]: consistent with the expected product 8
Vmax/KM ([3]; carbonate-washed yeast membranes, pH 7.5, 30 °C, n=2 (2), n=5 (4)): 4.8×10^−5 min/mg protein
binding affinity of 4 relative to 2 (fold higher, from KM) ([3]; compared with 2): 3.4 fold
efficiency (Vmax/KM) of 4 relative to 2 (fold lower) ([3]; compared with 2): approximately 18 fold
maximal rate of 4 relative to 2 (fold lower) ([3]; compared with 2): approximately 60 fold

Abz-KSKTKC(Fr)VIM
Vmax [4]: 600 nmol/h/mg Rce1p-containing membrane protein
Km [4]: 4 µM

KSKTKC(Fr)VIM
Vmax [4]: 600 nmol/h/mg Rce1p-containing membrane protein
Km [4]: 4 µM
